Experimental data as given in PubChem BioAssay (NCI).
Values joined by “and” are separate entries in the source; they are usually repeats but may differ in a detail not shown here. Equal entries are not always repeated.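 Grown in 96-well plates, cells were treated for 48 hours with each compound at five concentrations. Insufficient inhibition: endpoint recorded as highest concentration tested. At the GI50, growth is halved. At the TGI there is no net growth.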

Experiments:
Experiment in all cases: NCI-60 cell line screen, 48 h
[1] = test system: NCI-H23 lung
[2] = test system: SK-MEL-5 melanoma
[3] = test system: SF-539 CNS
[4] = test system: SN12C renal
[5] = test system: K-562 leukemia
[6] = test system: IGROV1 ovarian
[7] = test system: OVCAR-4 ovarian
[8] = test system: U251 CNS
[9] = test system: HS 578T breast
[10] = test system: DU-145 prostate

Structure (SMILES)	TGI [1] [µM]	TGI [2] [µM]	TGI [3] [µM]	TGI [4] [µM]	TGI [5] [µM]	TGI [6] [µM]	TGI [7] [µM]	TGI [8]	GI50 [1]	GI50 [2] [µM]	GI50 [3] [µM]	GI50 [9] [µM]	TGI [9] [µM]	GI50 [4] [µM]	GI50 [5] [µM]	GI50 [6] [µM]	GI50 [8] [µM]	GI50 [10] [µM]	TGI [10] [µM]	GI50 [7] [µM]
CCCCCCCCCCCC(=O)OC(COC(N)=O)COc1ccc(Cl)cc1 (stereo not drawn)	46	32.8	66.4	70	35.1	81.2	40.9	52.7 µM												
O=C1N=C(Nc2nc(-c3csc(NC4=NC(=O)/C(=C\c5ccc(Cl)cc5)S4)n3)cs2)S/C1=C/c1ccc(Cl)cc1	> 50	41	46.2	33.7	> 50	> 50		> 50 µM	13.5 µM	3.83	15.4	> 50	> 50	7.85	7.23	19.8	4.83	17	> 50	
NC(=O)c1cc([N+](=O)[O-])cc([N+](=O)[O-])c1	> 100	> 100	> 100	> 100	> 100	> 100	> 100	> 100 µM												
N#Cc1c(N)c(C#N)c2c(c1-c1ccc(Cl)cc1)COc1ccc(F)cc1-2	39.2	> 50	> 50	> 50	> 50	30.5	> 50	> 50 µM	7.11 µM	16.4	28.2			> 50	> 50	6.24	22	14.7	> 50	> 50
O=C(/C=C/c1ccc(O)cc1)c1cc(Cl)ccc1O	> 100	> 100	44.9	> 100	71.3	> 100	> 100	> 100 µM												
ClCCCCOC1CCCCO1 (stereo not drawn)	> 100	> 100	> 100	> 100		> 100	> 100	> 100 µM												
COc1cc(/C=C/c2cc(O)c(C/C=C(\C)CC/C=C(\C)CO)c(O)c2)cc2c1O[C@]1(C)CC[C@@H](O)C(C)(C)[C@H]1C2	> 93.7		11.1	> 100		> 100	> 100	8.3 µM and > 72.6 µM	4.93 µM and 20.5 µM		3.4					> 100		26.4	> 100	32.5
O=C1c2ccccc2C(=O)c2c1ccc1c2N=C(c2ccc(Br)cc2)CC(c2cccc3ccccc23)N1 (stereo not drawn)	> 100	> 100	> 100	> 100	> 100	> 100	> 100	> 100 µM												
CCCCC(C(=O)CCC(=O)Nc1ccc(Cl)cc1)C(=O)C(C)C (stereo not drawn)	> 100	> 100	> 100	> 100	> 100	> 100	> 100	> 100 µM												
COc1cc(Cn2c(SCC(=O)Nc3ccc(Cl)cc3)nc3ccccc3c2=O)cc(OC)c1OC	72.6	21.2	6.5	> 100		55.8	13.9	11.1 µM	16.5 µM	6.38	2.29	3.95	40.3	16.9		19	3.14	18.1	> 100	3.01
